Measured values from US9062041B2 (Bayer Intellectual Property GmbH, priority 2011, dated 2015).

Tests used:
Format in all cases: cell-based
[1] = biological target: EP2 subtype of the human PGE2 receptor (Homo sapiens, UniProt P43116); test: cAMP antagonism test on the human EP2 receptor (HTRF cAMP detection); conditions: hEP2 receptor, read-out: Antagonism hEP2 IC50
Outline: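 Read-out is a competitive HTRF for cAMP: lysate cAMP displaces cAMP-d2 from Eu cryptate-labelled antibody, and antagonism raises the 665/620 nm ratio. Compound (0.8 nM–16.5 μM) added to EP2 cells 20 min at RT before 60 min PGE2 challenge (3× stock 1.5 nM) with IBMX, followed by 20 min lysis.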

[2] = biological target: EP4 subtype of the human PGE2 receptor (Homo sapiens, UniProt P35408); test: cAMP antagonism test on the human EP4 receptor (HTRF cAMP detection); conditions: selectivity towards hEP4, IC50 measured by cAMP antagonism test
Sequence of EP4 subtype of the human PGE2 receptor (P35408 whole entry): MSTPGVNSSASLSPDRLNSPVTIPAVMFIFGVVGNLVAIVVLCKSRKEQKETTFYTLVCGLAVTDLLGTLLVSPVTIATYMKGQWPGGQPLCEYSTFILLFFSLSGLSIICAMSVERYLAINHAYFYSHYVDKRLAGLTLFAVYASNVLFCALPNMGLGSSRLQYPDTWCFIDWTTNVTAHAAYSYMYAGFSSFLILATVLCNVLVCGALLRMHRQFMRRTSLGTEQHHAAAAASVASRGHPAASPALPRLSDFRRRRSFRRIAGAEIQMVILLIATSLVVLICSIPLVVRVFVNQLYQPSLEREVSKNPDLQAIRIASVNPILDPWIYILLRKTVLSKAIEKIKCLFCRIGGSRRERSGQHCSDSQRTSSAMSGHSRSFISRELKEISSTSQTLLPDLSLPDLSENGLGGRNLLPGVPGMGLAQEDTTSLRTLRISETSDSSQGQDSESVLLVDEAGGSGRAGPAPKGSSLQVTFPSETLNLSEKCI
Outline: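 Competitive HTRF cAMP read-out (cAMP-d2 vs Eu-cryptate anti-cAMP antibody, 665/620 nm ratio) on lysed human EP4 cells. Compound (0.8 nM–16.5 μM) applied 20 min at RT before 60 min PGE2 challenge (3× solution 0.3 nM, IBMX present); 20 min lysis precedes reading.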

human PGD receptor = biological target: T1, human PGD receptor (Homo sapiens, UniProt Q13258); test: cAMP antagonism test on the human prostaglandin D receptor (HTRF cAMP detection); conditions: selectivity towards hDP, IC50 measured by cAMP antagonism test
T1 sequence (Q13258 1-359): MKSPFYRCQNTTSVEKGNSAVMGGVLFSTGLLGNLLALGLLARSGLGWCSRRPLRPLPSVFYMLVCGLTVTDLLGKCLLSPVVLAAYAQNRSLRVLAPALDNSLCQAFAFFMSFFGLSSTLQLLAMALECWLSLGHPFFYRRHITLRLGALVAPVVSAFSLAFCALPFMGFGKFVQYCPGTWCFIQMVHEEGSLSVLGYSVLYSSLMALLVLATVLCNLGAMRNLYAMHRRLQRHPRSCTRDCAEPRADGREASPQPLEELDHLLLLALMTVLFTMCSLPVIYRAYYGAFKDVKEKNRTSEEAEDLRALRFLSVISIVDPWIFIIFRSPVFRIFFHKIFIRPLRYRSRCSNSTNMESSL
Outline: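 HTRF competition read-out (665/620 nm ratio ×10000), where higher FRET means less cAMP, i.e. antagonism. Compounds (0.8 nM–16.5 μM) were preincubated 20 min at RT with cells and cAMP-d2, PGD2 (3× solution, 6 nM) in IBMX-containing PBS added for 30 min at RT, then cells lysed 20 min.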

Sequence of EP2 subtype of the human PGE2 receptor (P43116 whole entry): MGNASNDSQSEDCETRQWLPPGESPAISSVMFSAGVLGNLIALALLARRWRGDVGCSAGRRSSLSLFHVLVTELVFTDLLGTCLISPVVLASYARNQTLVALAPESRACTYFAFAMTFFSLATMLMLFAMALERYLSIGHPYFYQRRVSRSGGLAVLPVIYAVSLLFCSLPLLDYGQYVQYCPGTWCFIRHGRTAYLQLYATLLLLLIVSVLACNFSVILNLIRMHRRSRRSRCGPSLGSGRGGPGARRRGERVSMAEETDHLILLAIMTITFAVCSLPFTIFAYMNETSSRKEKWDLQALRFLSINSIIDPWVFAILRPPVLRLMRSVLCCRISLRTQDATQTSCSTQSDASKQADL

Row | IC50 [1] | Selectivity hEP2/hEP4 [2] | Selectivity hEP2/hDP (human PGD receptor) | SMILES
1 | 31.8 nM | xxx (xxx > 100) | xxx (xxx > 100) | Cc1c(C(=O)NCCCO)ccc2nn(CC3CCN(C(=O)c4ccc(-c5ccc(F)cc5)cc4)CC3)cc12 [Example 409, 2-({1-[(4′-fluorobiphenyl-4-yl)carbonyl]piperidin-4-yl}methyl)-N-(3-hydroxypropyl)-4-methyl-2H-indazol-5-carboxamide]
2 | 68.3 nM | xxx (xxx > 100) | xxx (xxx > 100) | COCCNC(=O)c1cc2cn(CC3CN(C(=O)c4ccc(Cl)cc4)C3)nc2cc1C [Example 178, 2-{[1-(4-chlorobenzoyl)azetidin-3-yl]methyl}-N-(2-methoxyethyl)-6-methyl-2H-indazol-5-carboxamide]
3 | 25.1 nM | xxx (xxx > 100) | xxx (xxx > 100) | Cc1c(C(=O)NCC2CCCCO2)ccc2nn(CC3CCN(C(=O)c4ccc(Cl)cc4)CC3)cc12 (single isomer, unassigned) [Example 240, (R or S)-2-{[1-(4-chlorobenzoyl)piperidin-4-yl]methyl}-4-methyl-N-(3,4,5,6-tetrahydro-2H-pyran-2-ylmethyl)-2H-indazol-5-carboxamide]
4 | 77.7 nM | xxx (xxx > 100) | xxx (xxx > 100) | Cc1c(C(=O)NCC2CC2)ccc2nn(CC3CCN(C(=O)c4ccc(Cl)cc4)CC3)cc12 [Example 402, 2-{[1-(4-chlorobenzoyl)piperidin-4-yl]methyl}-N-(cyclopropylmethyl)-4-methyl-2H-indazol-5-carboxamide]
5 | 160 nM | xxx (xxx > 100) | xxx (xxx > 100) | COC(C)CNC(=O)c1ccc2nn(CC3CN(C(=O)c4ccc(Cl)cc4)C3)cc2c1C (racemic) [Example 138, (+/−)-2-{[1-(4-chlorobenzoyl)azetidin-3-yl]methyl}-N-(2-methoxypropyl)-4-methyl-2H-indazol-5-carboxamide]
6 | 9.59 nM | xxx (xxx > 100) | xxx (xxx > 100) | Cc1c(C(=O)NCC2CCC2)ccc2nn(CC3CCN(C(=O)c4ccc(Oc5ccc(C(F)(F)F)cc5)cc4)CC3)cc12 [Example 403, N-(cyclobutylmethyl)-4-methyl-2-[(1-{4-[4-(trifluoromethyl)phenoxy]benzoyl}-piperidin-4-yl)methyl]-2H-indazol-5-carboxamide]
7 | 76.8 nM | xxx (xxx > 100) | xxx (xxx > 100) | COCCNC(=O)c1cc2cn(CC3CN(C(=O)c4ccc(C(F)(F)F)c(F)c4)C3)nc2cc1C [Example 184, 2-({1-[3-fluoro-4-(trifluoromethyl)benzoyl]azetidin-3-yl}methyl)-N-(2-methoxy-ethyl)-6-methyl-2H-indazol-5-carboxamide]
8 | 6.27 nM | xxx (xxx > 100) | xxx (xxx > 100) | COCCNC(=O)c1ccc2nn(CC3CCN(C(=O)c4ccc(-c5ccc(C(F)(F)F)cc5)cc4)CC3)cc2c1C [Example 360, N-(2-methoxyethyl)-4-methyl-2-[(1-{[4′-(trifluoromethyl)biphenyl-4-yl]-carbonyl}piperidin-4-yl)methyl]-2H-indazol-5-carboxamide]
9 | 485 nM | xx (xx: 10-100) | xx (xx: 10-100) | COc1ccc(-c2ccc(C(=O)N3CCC(Cn4cc5c(C)c(C(=O)NCC(F)(F)F)ccc5n4)CC3)cc2)nc1 [Example 326, 2-({1-[4-(5-methoxypyridin-2-yl)benzoyl]piperidin-4-yl}methyl)-4-methyl-N-(2,2,2-trifluoroethyl)-2H-indazol-5-carboxamide]
10 | 39 nM | xxx (xxx > 100) | xxx (xxx > 100) | COCCNC(=O)c1ccc2nn(CC3CN(C(=O)c4ccc(SC(F)(F)F)cc4)C3)cc2c1OC [Example 215, 4-methoxy-N-(2-methoxyethyl)-2-[(1-{4-[(trifluoromethyl)sulphanyl]benzoyl}azetidin-3-yl)methyl]-2H-indazol-5-carboxamide]
11 | 50.8 nM | xxx (xxx > 100) | xxx (xxx > 100) | Cc1cc2nn(CC3CN(C(=O)c4ccc(OC(F)(F)F)cc4)C3)cc2cc1C(=O)NCCOC(F)(F)F [Example 196, 6-methyl-2-({1-[4-(trifluoromethoxy)benzoyl]azetidin-3-yl}methyl)-N-[2-(trifluoromethoxy)ethyl]-2H-indazol-5-carboxamide]
12 | 12.8 nM | xxx (xxx > 100) | xxx (xxx > 100) | Cc1c(C(=O)NCCOCC2CC2)ccc2nn(CC3CN(C(=O)c4ccc(Oc5ccc(F)cc5)cc4)C3)cc12 [Example 150, N-[2-(cyclopropylmethoxy)ethyl]-2-({1-[4-(4-fluorophenoxy)benzoyl]azetidin-3-yl}methyl)-4-methyl-2H-indazol-5-carboxamide]
13 | 53.1 nM | xxx (xxx > 100) | xxx (xxx > 100) | COCCNC(=O)c1ccc2nn(CC3CCN(C(=O)c4ccc(Cl)c(C(F)(F)F)c4)CC3)cc2c1OC [Example 270, 2-({1-[4-chloro-3-(trifluoromethyl)benzoyl]piperidin-4-yl}methyl)-4-methoxy-N-(2-methoxyethyl)-2H-indazol-5-carboxamide]
14 | 109 nM | xxx (xxx > 100) | xxx (xxx > 100) | Cc1c(C(=O)NCC(F)(F)F)ccc2nn(CC3CN(C(=O)c4ccc(S(F)(F)(F)(F)F)cc4)C3)cc12 [Example 132, 4-methyl-2-({1-[4-(pentafluoro-λ^6-sulphanyl)benzoyl]azetidin-3-yl}methyl)-N-(2,2,2-trifluoroethyl)-2H-indazol-5-carboxamide]
15 | 11.9 nM | xxx (xxx > 100) | xxx (xxx > 100) | COCCNC(=O)c1ccc2nn(CC3CCN(C(=O)c4ccc(Oc5ccc(F)cc5)cc4)CC3)cc2c1OC(F)F [Example 226, 4-(difluoromethoxy)-2-({1-[4-(4-fluorophenoxy)benzoyl]piperidin-4-yl}methyl)-N-(2-methoxyethyl)-2H-indazol-5-carboxamide]
16 | 10.7 nM | xxx (xxx > 100) | xxx (xxx > 100) | Cc1c(C(=O)NCC2CCCCO2)ccc2nn(CC3CCN(C(=O)c4ccc(Oc5ccc(C(F)(F)F)cc5)cc4)CC3)cc12 (single isomer, unassigned) [Example 416, (R or S)-4-methyl-N-(3,4,5,6-tetrahydro-2H-pyran-2-ylmethyl)-2-[(1-{4-[4-(trifluoromethyl)phenoxy]benzoyl}piperidin-4-yl)methyl]-2H-indazol-5-carboxamide]
17 | 20.3 nM | xxx (xxx > 100) | xxx (xxx > 100) | Cc1ccc(C(=O)N2CCC(Cn3cc4c(C)c(C(=O)NCCOCC(F)(F)F)ccc4n3)CC2)cc1 [Example 91, 4-methyl-2-{[1-(4-methylbenzoyl)-piperidin-4-yl]-methyl}-N-[2-(2,2,2-trifluoro-ethoxy)ethyl]-2H-indazol-5-carboxamide]
18 | 2.71 nM | xxx (xxx > 100) | xxx (xxx > 100) | COCCNC(=O)c1ccc2nn(CC3CN(C(=O)c4cc5ccc(OC)cc5n4C)C3)cc2c1C [Example 173, N-(2-methoxyethyl)-2-({1-[(6-methoxy-1-methyl-1H-indol-2-yl)carbonyl]azetidin-3-yl}methyl)-4-methyl-2H-indazol-5-carboxamide]
19 | 5.8 nM | xxx (xxx > 100) | xxx (xxx > 100) | COCCNC(=O)c1ccc2nn(CC3CCN(C(=O)c4ccc(-c5ccc(OC)nc5)cc4)CC3)cc2c1C [Example 375, N-(2-methoxyethyl)-2-({1-[4-(6-methoxypyridin-3-yl)benzoyl]piperidin-4-yl}-methyl)-4-methyl-2H-indazol-5-carboxamide]
20 | 9.53 nM | xxx (xxx > 100) | xxx (xxx > 100) | Cc1c(C(=O)NCCOC(F)(F)F)ccc2nn(CC3CCN(C(=O)c4ccc(-c5ccc(F)cc5)cc4)CC3)cc12 [Example 109, 2-({1-[(4′-fluoro-biphenyl-4-yl)-carbonyl]piperidin-4-yl}-methyl)-4-methyl-N-[2-(trifluoro-methoxy)ethyl]-2H-indazol-5-carboxamide]
